Literature values, collected in publication PMC7426938, “Induction of mitochondria-mediated apoptosis and suppression of tumor growth in zebrafish xenograft model by cyclic dipeptides identified from Exiguobacterium acetylicum” (Scientific Reports, 2020).
Values after ≈ are worked out from the molar mass of the structure shown.

Tests used:
MCF-7 cells = system: MCF-7 cells; set-up: method as in PMID 15274345; conditions: read-out: dose giving 50% growth inhibition; cited from earlier work
HT-29 cells [1] = system: HT-29 cells; set-up: method as in PMID 15274345; conditions: read-out: dose giving 50% growth inhibition; cited from earlier work
HeLa cells = system: HeLa cells; set-up: method as in PMID 15274345; conditions: read-out: dose giving 50% growth inhibition; cited from earlier work
HT-29 cells [2] = system: HT-29 cells; set-up: method as in PMID 29211005, PMID 10052845; conditions: cited from earlier work
HL-60 cells = system: HL-60 cells; set-up: method as in PMID 29211005, PMID 10052845; conditions: cited from earlier work

Structure (SMILES) | IC50 (MCF-7 cells) [mM] | IC50 (HT-29 cells [1]) [mM] | IC50 (HeLa cells) [mM] | IC50, anti-proliferative effect (HT-29 cells [2]) [µg/mL] | IC50, anti-proliferative effect (HL-60 cells) [µg/mL]
O=C1NC(Cc2ccccc2)C(=O)N2CCCC12 (centres unmarked) [cyclo (Phe-Pro)] | < 7 | < 7 | < 7 |  | 
O=C1NC(Cc2ccc(O)cc2)C(=O)N2CCCC12 (centres unmarked) [cyclo (Tyr-Pro)] | < 7 | < 7 | < 7 |  | 
CC(C)C[C@@H]1NC(=O)[C@H](NC(=O)c2cccc(O)c2O)CCCNC1=O [petrocidin-A] |  |  |  | 5.3 (≈ 14.6 µM) | 3.9 (≈ 10.7 µM)
